Each structure is given as a SMILES string.

Experiment [1] concerns MV4-11. Put plainly: Induction of apoptosis in human MV4-11 cells assessed as total apoptotic cells at 50 nM incubated for 48 hrs by Annexin V-FITC/PI staining based flow cytometry (reference value: 2.99%). The class given is functional. Background: In flow cytometry, cells or beads pass a laser one at a time.
Experiment [2] concerns MV4-11. In words: Inhibition of PI3K in human MV4-11 cells assessed as downregulation of phosphorylated AKT expression incubated for 24 hrs by western blot analysis. Type of experiment: cell-based. The conditions noted are these: dose 0.05-0.45 µM, DDE = dose-dependent effect. For orientation: In western blotting, separated proteins are transferred to a membrane and probed.

A further experiment relates to HL-60. Put plainly: cells. The conditions noted are these: Homo sapiens, HL-60, 72 h. Type of experiment: functional, cell-based.
For experiment [3], the system named is MV4-11. Put plainly: Induction of cell cycle arrest in human MV4-11 cells assessed as accumulation of cells at S phase at 1350 nM incubated for 48 hrs by […]PI staining based flow cytometry (reference value: 45.5%). Type of experiment: functional.
Experiment [4] concerns MV4-11. Put plainly: cells. The class given is functional, cell-based. Particulars: Homo sapiens, MV4-11, 72 h.
Description: Antiproliferative activity against human MV4-11 cells assessed as inhibition of cell proliferation incubated for 72 hrs by CCK8 assay
For experiment [5], the system named is MV4-11. In words: Induction of cell cycle arrest in human MV4-11 cells assessed as accumulation of cells at G2/M phase at 450 nM incubated for 48 hrs by […]PI staining based flow cytometry (reference value: 11.5%). The class given is functional.
The subject of experiment [6] is MV4-11. In words: Induction of cell cycle arrest in human MV4-11 cells assessed as accumulation of cells at G0/G1 phase at 1350 nM incubated for 48 hrs by […]PI staining based flow cytometry (reference value: 33.1%). The class given is functional.
Experiment [7] deals with MV4-11. Put plainly: Induction of cell cycle arrest in human MV4-11 cells assessed as accumulation of cells at G0/G1 phase at 450 nM incubated for 48 hrs by […]PI staining based flow cytometry (reference value: 33.1%). The class given is functional.
Another experiment deals with A549. Put plainly: Antiproliferative activity against human A549 cells assessed as inhibition of cell proliferation incubated for 72 hrs by MTT assay. Particulars: A549, 72 h. The class given is functional, cell-based. Background: Tetrazolium assays rely on reduction of a dye to a coloured formazan, in cell work by metabolically active cells.
Experiment [8] concerns MV4-11. In words: Induction of cell cycle arrest in human MV4-11 cells assessed as accumulation of cells at G0/G1 phase at 150 nM incubated for 48 hrs by […]PI staining based flow cytometry (reference value: 33.1%). Type of experiment: functional.
The subject of the next experiment is HCT-116. In words: Antiproliferative activity against human HCT-116 cells assessed as inhibition of cell proliferation incubated for 72 hrs by MTT assay. The class given is functional, cell-based. Particulars: HCT-116, 72 h.
For experiment [9], the system named is MV4-11. Put plainly: Induction of apoptosis in human MV4-11 cells assessed as late apoptotic cells at 450 nM incubated for 48 hrs by Annexin V-FITC/PI staining based flow cytometry (reference value: 2.04%). Type of experiment: functional.
Experiment [10] deals with MV4-11. Put plainly: Induction of apoptosis in human MV4-11 cells assessed as necrotic cells at 50 nM incubated for 48 hrs by Annexin V-FITC/PI staining based flow cytometry (reference value: 0.51%). Type of experiment: functional.
In the next experiment the test system is HepG2. Put plainly: Antiproliferative activity against human HepG2 cells assessed as inhibition of cell proliferation incubated for 72 hrs by MTT assay. Type of experiment: functional, cell-based. The conditions noted are these: HepG2, 72 h.
For experiment [11], the target named is T1, Protein deacetylase HDAC6 (Homo sapiens, UniProt Q9UBN7).
T1 sequence (Q9UBN7 whole entry): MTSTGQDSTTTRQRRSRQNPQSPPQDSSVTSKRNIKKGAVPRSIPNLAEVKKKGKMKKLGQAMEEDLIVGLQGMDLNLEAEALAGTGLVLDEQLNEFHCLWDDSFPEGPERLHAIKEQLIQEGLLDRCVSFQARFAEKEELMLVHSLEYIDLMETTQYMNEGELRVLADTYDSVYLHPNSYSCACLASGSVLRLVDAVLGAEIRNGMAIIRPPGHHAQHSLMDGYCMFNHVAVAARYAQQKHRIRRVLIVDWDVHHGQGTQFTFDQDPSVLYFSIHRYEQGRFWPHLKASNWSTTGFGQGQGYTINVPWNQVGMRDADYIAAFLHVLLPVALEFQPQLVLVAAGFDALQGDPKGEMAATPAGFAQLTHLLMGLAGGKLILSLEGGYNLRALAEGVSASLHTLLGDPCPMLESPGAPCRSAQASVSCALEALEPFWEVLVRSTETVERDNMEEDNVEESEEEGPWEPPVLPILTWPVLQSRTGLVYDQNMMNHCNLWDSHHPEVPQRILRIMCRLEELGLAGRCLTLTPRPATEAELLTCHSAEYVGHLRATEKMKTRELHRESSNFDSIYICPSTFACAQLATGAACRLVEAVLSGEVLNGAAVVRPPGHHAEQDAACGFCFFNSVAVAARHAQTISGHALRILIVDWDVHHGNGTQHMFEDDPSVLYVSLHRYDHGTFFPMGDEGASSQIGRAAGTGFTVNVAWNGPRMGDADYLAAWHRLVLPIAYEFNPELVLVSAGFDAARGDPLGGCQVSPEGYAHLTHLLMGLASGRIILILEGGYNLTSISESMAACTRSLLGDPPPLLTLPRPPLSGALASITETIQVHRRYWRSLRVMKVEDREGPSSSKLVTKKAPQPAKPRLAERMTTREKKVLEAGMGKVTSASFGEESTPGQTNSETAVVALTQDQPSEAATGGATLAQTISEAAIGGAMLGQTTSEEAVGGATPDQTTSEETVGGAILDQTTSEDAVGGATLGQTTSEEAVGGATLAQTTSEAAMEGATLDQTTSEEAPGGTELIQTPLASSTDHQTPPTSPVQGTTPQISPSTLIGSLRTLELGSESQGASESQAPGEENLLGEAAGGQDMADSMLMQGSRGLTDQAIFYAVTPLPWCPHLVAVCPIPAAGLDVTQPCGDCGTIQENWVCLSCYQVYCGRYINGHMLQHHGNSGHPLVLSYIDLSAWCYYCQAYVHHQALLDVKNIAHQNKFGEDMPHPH
In words: Inhibition of HDAC6 (unknown origin).

Experiment [12] concerns MV4-11. Put plainly: Induction of cell cycle arrest in human MV4-11 cells assessed as accumulation of cells at G2/M phase at 150 nM incubated for 48 hrs by […]PI staining based flow cytometry (reference value: 11.5%). The class given is functional.
Another experiment has as its system HGC-27. Put plainly: Antiproliferative activity against human HGC-27 cells assessed as inhibition of cell proliferation incubated for 72 hrs by MTT assay. Type of experiment: functional, cell-based. The conditions noted are these: HGC-27, 72 h.
Experiment [13] relates to MV4-11. In words: Induction of apoptosis in human MV4-11 cells assessed as necrotic cells at 450 nM incubated for 48 hrs by Annexin V-FITC/PI staining based flow cytometry (reference value: 0.51%). Type of experiment: functional.
Another experiment relates to K562. Put plainly: cells. The class given is functional, cell-based. The conditions noted are these: Homo sapiens, K562, 72 h.
Experiment [14] relates to MV4-11. Put plainly: Induction of apoptosis in human MV4-11 cells assessed as viable cells at 50 nM incubated for 48 hrs by Annexin V-FITC/PI staining based flow cytometry (reference value: 96.5%). The conditions noted are these: read-out: Activity. The class given is functional.
Experiment [15] relates to MV4-11. In words: Induction of apoptosis in human MV4-11 cells assessed as late apoptotic cells at 150 nM incubated for 48 hrs by Annexin V-FITC/PI staining based flow cytometry (reference value: 2.04%). The class given is functional.
In another experiment the test system is MCF7. Put plainly: Antiproliferative activity against human MCF7 cells assessed as inhibition of cell proliferation incubated for 72 hrs by MTT assay. The class given is functional, cell-based. The conditions noted are these: MCF7, 72 h.
For experiment [16], the system named is MV4-11. In words: Induction of apoptosis in human MV4-11 cells assessed as viable cells at 450 nM incubated for 48 hrs by Annexin V-FITC/PI staining based flow cytometry (reference value: 96.5%). Particulars: read-out: Activity. Type of experiment: functional.

Description for HL-60: Antiproliferative activity against human HL-60 cells assessed as inhibition of cell proliferation incubated for 72 hrs by CCK8 assay
Description for K562: Antiproliferative activity against human K562 cells assessed as inhibition of cell proliferation incubated for 72 hrs by CCK8 assay

Take `O=C(NO)c1ccc(Cn2cc(-c3cccc4[nH]ncc34)nc(N3CCOCC3)c2=O)cc1`: the Activity in the experiment with MV4-11 [1] came out at 7.2%; in the experiment with MV4-11 [3] it was 25.2%; in the experiment on MV4-11 [5], 38.3%; with MV4-11 [6], 15.2%; in the experiment with MV4-11 [7] it was 15.1%; with MV4-11 [8], 25.6%. The Activity with MV4-11 [9] was found to be 46.1%; in the experiment on MV4-11 [10], 0.34%; in the experiment on MV4-11 [12] it was 32.9%; in the experiment on MV4-11 [13], 0.69%; in the experiment on MV4-11 [15] it was 14.5%. In addition, the inhibition result with MV4-11 [2] was “Dde”. Besides, the half-inhibitory concentration (IC50) in the experiment on HL-60 worked out at 350 nM; in the experiment on MV4-11 [4], 90 nM; in the experiment with A549, 11000 nM; in the experiment with HCT-116, 16400 nM; in the experiment on HepG2, 1190 nM; in experiment [11] it was 4.5 nM. Further, the half-maximal inhibitory concentration (IC50) in the experiment on HGC-27 was determined as 880 nM; in the experiment with K562 it was 120 nM; in the experiment with MCF7, 400 nM. Besides, the viability at 0.05 µM with MV4-11 [14] stood at 92.5%. For the same compound, the viability at 0.45 µM in the experiment on MV4-11 [16] worked out at 18.7%.

The IC50 is the concentration that inhibits the measured activity by half.

Values taken from ChEMBL document CHEMBL5096219, “Design, synthesis and biological evaluation of novel pyrazinone derivatives as PI3K/HDAC dual inhibitors” (Bioorg Med Chem, 2022).
